Assay results: US12521393B2, “Cytotoxicity targeting chimeras for CCR2-expressing cells” (GLAXOSMITHKLINE INTELLECTUAL PROPERTY DEVELOPMENT LIMITED, priority 2021, dated 2026)

Experiments:
[1] = biological target: anti-cotinine antibody (SEQ ID NO: 11/12, rabbit variable region with human IgG1 Fc DE mutation); assay: SPR binding of anti-cotinine antibody to ARM compounds, Biacore T200, 37° C. (Example 202); conditions: SPR Biacore T200, 37° C., pH 7.4, antibody SEQ ID NO: 11/12 captured on protein A; Kd in molar
In short: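 Run at 37 °C in 10 mM HEPES pH 7.4, 150 mM NaCl, 0.005% P20, 1% DMSO, with compounds titrated from 200 nM (five 3-fold steps) over protein A–captured antibody. A 1:1 kinetic model on double-referenced data gave rate constants, Kd as koff/kon and residence time 1/koff; results as pKd, run-averaged.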

[2] = tested on: CCR2 expressing cells (CD11b+Ly6c+Hi) in peripheral blood; assay: In vivo depletion assay, flow cytometry of peripheral blood (Example 201); design: species or system human CCR2 knock-in mice (C57 background); conditions: hCCR2 knock-in mice, IV 0.1 mpk compound + 10 mpk anti-cotinine antibody (SEQ ID NO: 13/14), peripheral blood at 48 hr
In short: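 Flow cytometry of blood collected at study termination quantified percent depletion of CD11b+Ly6c+Hi cells and CCR2 expression, using surface markers CD45, CD3, CD11b, Ly6C, human CCR2 after Fc block, with 7AAD viability stain. Compound given in saline:DMSO:PBS formulation, optionally combined with anti-cotinine antibody, incubated 30 min before administration.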

Structure (SMILES) | pKd of Antibody for ARM Compound of Formula (I) [1] | % Depletion of CCR2 expressing cells [2] [%]
CC(C)N(C)[C@@H]1CC[C@H](N2CC[C@H](Nc3ncnc4ccc(C(F)(F)F)cc34)C2=O)[C@H](NC(=O)[C@H]2CC[C@@H](NC(=O)CCOCCOCCNC(=O)CNC(=O)[C@H]3CC(=O)N(C)[C@@H]3c3cccnc3)CC2)C1 [Example 63, (2S,3S)-N-(2-((2-(2-(3-(((1S,4s)-4-(((1R,2S,5R)-5-(Isopropyl(methyl)amino)-2-((S)-2-oxo-3-((6-(trifluoromethyl)quinazolin-4-yl)amino)pyrrolidin-1-yl)cyclohexyl)carbamoyl)cyclohexyl)amino)-3-oxopropoxy)ethoxy)ethyl)amino)-2-oxoethyl)-1-methyl-5-oxo-2-(pyridin-3-yl)pyrrolidine-3-carboxamide] | 8.674 | 82
CC(C)N(C)[C@@H]1CC[C@H](N2CC[C@H](Nc3ncnc4ccc(C(F)(F)F)cc34)C2=O)[C@H](NC2CCN(C(=O)CCOCCOCCOCCOCCNC(=O)[C@H]3CC(=O)N(C)[C@@H]3c3cccnc3)CC2)C1 [Example 69, (2S,3S)-N-(15-(4-(((1R,2S,5R)-5-(Isopropyl(methyl)amino)-2-((S)-2-oxo-3-((6-(trifluoromethyl)quinazolin-4-yl)amino)pyrrolidin-1-yl)cyclohexyl)amino)piperidin-1-yl)-15-oxo-3,6,9,12-tetraoxapentadecyl)-1-methyl-5-oxo-2-(pyridin-3-yl)pyrrolidine-3-carboxamide] | 9.321 | 98.59
CC(C)N(C)[C@@H]1CC[C@H](N2CC[C@H](Nc3ncnc4ccc(C(F)(F)F)cc34)C2=O)[C@H](NC(=O)CCOCCOCCNC(=O)CCOCCOCCNC(=O)[C@H]2CC(=O)N(C)[C@@H]2c2cccnc2)C1 [Example 76, (2S,3S)-N-(19-(((1R,2S,5R)-5-(Isopropyl(methyl)amino)-2-((S)-2-oxo-3-((6-(trifluoromethyl)quinazolin-4-yl)amino)pyrrolidin-1-yl)cyclohexyl)amino)-9,19-dioxo-3,6,13,16-tetraoxa-10-azanonadecyl)-1-methyl-5-oxo-2-(pyridin-3-yl)pyrrolidine-3-carboxamide] | 9.1155 | 65
CC(C)N(C)[C@@H]1CC[C@H](N2CC[C@H](Nc3ncnc4ccc(C(F)(F)F)cc34)C2=O)[C@H](NC(=O)[C@H]2CC[C@@H](NC(=O)COCCNC(=O)COCCNC(=O)[C@H]3CC(=O)N(C)[C@@H]3c3cccnc3)CC2)C1 [Example 99, (2S,3S)-N-(2-(2-((2-(2-(((1S,4s)-4-(((1R,2S,5R)-5-(Isopropyl(methyl)amino)-2-((S)-2-oxo-3-((6-(trifluoromethyl)quinazolin-4-yl)amino)pyrrolidin-1-yl)cyclohexyl)carbamoyl)cyclohexyl)amino)-2-oxoethoxy)ethyl)amino)-2-oxoethoxy)ethyl)-1-methyl-5-oxo-2-(pyridin-3-yl)pyrrolidine-3-carboxamide] | 9.062 | 80
CC(C)N(C)[C@@H]1CC[C@H](N2CC[C@H](Nc3ncnc4ccc(C(F)(F)F)cc34)C2=O)[C@H](NC(=O)CCOCCNC(=O)COCCNC(=O)COCCNC(=O)[C@H]2CC(=O)N(C)[C@@H]2c2cccnc2)C1 [Example 102, (2S,3S)-N-(18-(((1R,2S,5R)-5-(Isopropyl(methyl)amino)-2-((S)-2-oxo-3-((6-(trifluoromethyl)quinazolin-4-yl)amino)pyrrolidin-1-yl)cyclohexyl)amino)-5,11,18-trioxo-3,9,15-trioxa-6,12-diazaoctadecyl)-1-methyl-5-oxo-2-(pyridin-3-yl)pyrrolidine-3-carboxamide] | 9.076 | 91
CC(C)N(C)[C@@H]1CC[C@H](N2CC[C@H](Nc3ncnc4ccc(C(F)(F)F)cc34)C2=O)[C@H](NC(=O)CCOCCNC(=O)CCOCCNC(=O)COCCNC(=O)[C@H]2CC(=O)N(C)[C@@H]2c2cccnc2)C1 [Example 105, (2S,3S)-N-(19-(((1R,2S,5R)-5-(Isopropyl(methyl)amino)-2-((S)-2-oxo-3-((6-(trifluoromethyl)quinazolin-4-yl)amino)pyrrolidin-1-yl)cyclohexyl)amino)-5,12,19-trioxo-3,9,16-trioxa-6,13-diazanonadecyl)-1-methyl-5-oxo-2-(pyridin-3-yl)pyrrolidine-3-carboxamide] | 9.0705 | 95
CC(C)N(C)[C@@H]1CC[C@H](N2CC[C@H](Nc3ncnc4ccc(C(F)(F)F)cc34)C2=O)[C@H](NC(=O)CCOCCNC(=O)[C@H]2CC[C@@H](NC(=O)COCCNC(=O)[C@H]3CC(=O)N(C)[C@@H]3c3cccnc3)CC2)C1 [Example 107, (2S,3S)-N-(2-(2-(((1S,4R)-4-((2-(3-(((1R,2S,5R)-5-(Isopropyl(methyl)amino)-2-((S)-2-oxo-3-((6-(trifluoromethyl)quinazolin-4-yl)amino)pyrrolidin-1-yl)cyclohexyl)amino)-3-oxopropoxy)ethyl)carbamoyl)cyclohexyl)amino)-2-oxoethoxy)ethyl)-1-methyl-5-oxo-2-(pyridin-3-yl)pyrrolidine-3-carboxamide] | 9.161 | 96
CC(C)N(C)[C@@H]1CC[C@H](N2CC[C@H](Nc3ncnc4ccc(C(F)(F)F)cc34)C2=O)[C@H](NC(=O)COCCNC(=O)COCCNC(=O)COCCNC(=O)[C@H]2CC(=O)N(C)[C@@H]2c2cccnc2)C1 [Example 111, (2S,3S)-N-(17-(((1R,2S,5R)-5-(Isopropyl(methyl)amino)-2-((S)-2-oxo-3-((6-(trifluoromethyl)quinazolin-4-yl)amino)pyrrolidin-1-yl)cyclohexyl)amino)-5,11,17-trioxo-3,9,15-trioxa-6,12-diazaheptadecyl)-1-methyl-5-oxo-2-(pyridin-3-yl)pyrrolidine-3-carboxamide] | 9.0855 | 50
CC(C)N(C)[C@@H]1CC[C@H](N2CC[C@H](Nc3ncnc4ccc(C(F)(F)F)cc34)C2=O)[C@H](NC(=O)[C@H]2CC[C@@H](NC(=O)CCCOCCCCOCCNC(=O)[C@H]3CC(=O)N(C)[C@@H]3c3cccnc3)CC2)C1 [Example 122, (2S,3S)-N-(2-(4-(4-(((1S,4s)-4-(((1R,2S,5R)-5-(Isopropyl(methyl)amino)-2-((S)-2-oxo-3-((6-(trifluoromethyl)quinazolin-4-yl)amino)pyrrolidin-1-yl)cyclohexyl)carbamoyl)cyclohexyl)amino)-4-oxobutoxy)butoxy)ethyl)-1-methyl-5-oxo-2-(pyridin-3-yl)pyrrolidine-3-carboxamide] | 9.146 | 94
CC(C)N(C)[C@@H]1CC[C@H](N2CC[C@H](Nc3ncnc4ccc(C(F)(F)F)cc34)C2=O)[C@H](NC(=O)CNC(=O)[C@H]2CC[C@@H](NC(=O)CCOCCOCCNC(=O)[C@H]3CC(=O)N(C)[C@@H]3c3cccnc3)CC2)C1 [Example 137, (2S,3S)-N-(2-(2-(3-(((1S,4s)-4-((2-(((1R,2S,5R)-5-(Isopropyl(methyl)amino)-2-((S)-2-oxo-3-((6-(trifluoromethyl)quinazolin-4-yl)amino)pyrrolidin-1-yl)cyclohexyl)amino)-2-oxoethyl)carbamoyl)cyclohexyl)amino)-3-oxopropoxy)ethoxy)ethyl)-1-methyl-5-oxo-2-(pyridin-3-yl)pyrrolidine-3-carboxamide] | 9.336 | 89
CC(C)N(C)[C@@H]1CC[C@H](N2CC[C@H](Nc3ncnc4ccc(C(F)(F)F)cc34)C2=O)[C@H](NC(=O)[C@H]2CC[C@@H](NC(=O)CCOCCNC(=O)CCNC(=O)CCNC(=O)[C@H]3CC(=O)N(C)[C@@H]3c3cccnc3)CC2)C1 [Example 182, (2S,3S)-N-(3-((3-((2-(3-(((1S,4s)-4-(((1R,2S,5R)-5-(Isopropyl(methyl)amino)-2-((S)-2-oxo-3-((6-(trifluoromethyl)quinazolin-4-yl)amino)pyrrolidin-1-yl)cyclohexyl)carbamoyl)cyclohexyl)amino)-3-oxopropoxy)ethyl)amino)-3-oxopropyl)amino)-3-oxopropyl)-1-methyl-5-oxo-2-(pyridin-3-yl)pyrrolidine-3-carboxamide] | 9.117 | 97
CC(C)N(C)[C@@H]1CC[C@H](N2CC[C@H](Nc3ncnc4ccc(C(F)(F)F)cc34)C2=O)[C@H](NC(=O)CCOCCC(=O)N[C@H]2C[C@@H](C(=O)NCCOCCNC(=O)[C@H]3CC(=O)N(C)[C@@H]3c3cccnc3)C2)C1 [Example 186, (2S,3S)-N-(2-(2-((1S,3R)-3-(3-(3-(((1R,2S,5R)-5-(Isopropyl(methyl)amino)-2-((S)-2-oxo-3-((6-(trifluoromethyl)quinazolin-4-yl)amino)pyrrolidin-1-yl)cyclohexyl)amino)-3-oxopropoxy)propanamido)cyclobutane-1-carboxamido)ethoxy)ethyl)-1-methyl-5-oxo-2-(pyridin-3-yl)pyrrolidine-3-carboxamide] | 9.1435 | 96
CC(C)N(C)[C@@H]1CC[C@H](N2CC[C@H](Nc3ncnc4ccc(C(F)(F)F)cc34)C2=O)[C@H](NC(=O)CCOCCC(=O)N[C@H]2C[C@H](C(=O)NCCOCCNC(=O)[C@H]3CC(=O)N(C)[C@@H]3c3cccnc3)C2)C1 [Example 187] | 9.104 | 92
